Reference: patent publication US20100173987A1, “ACTIVE AGENT COMBINATIONS WITH INSECTICIDAL AND ACARICIDAL PROPERTIES” (priority 2006, published 2010)

Assays:
Format in all cases: in vivo
Orius laevigalus = test: Greenhouse test on bell pepper: number of beneficial species scored
Method: (§1) In a greenhouse of a size of 4000 m^2 run in accordance with an IPM program (no insecticide used), bell pepper plants of the cultivar “Requena” on perlite substrates are, about 11 weeks after transplanting, tested comparatively against Western flower thrips (Frankliniella occidentalis) using spiromesifen (240 SC) and the non-beneficial-species-sparing standard formetanate (50 SP) at the stated application rates. Two applications are carried out at an interval of 14 days. Application is by knapsack sprayer. A water application rate of 1000 l/ha is applied.
(§2) Evaluations are carried out 7, 14, 21 and 28 days after the first treatment. As a natural enemy (beneficial species) of the Western flower thrips, use is made of Orius laevigalus from the family of the pirate bugs (Anthochoridae). Evaluation is carried out by counting the number of Western flower thrips on 15 open flowers. The number of beneficial species is also scored.

[1] = tested on: Frankliniella occidentalis; test: Greenhouse test on bell pepper against Western flower thrips; conditions: on 15 open flowers
Method: as §1, §2

Bemisia tabaci = Bemisia tabaci test (cotton leaves, spray, mirid bugs added); conditions: 0.16 ppm, infested cotton leaves sprayed
Method: Solvent: 7 parts by weight of dimethylformamide Emulsifier: 2 parts by weight of alkylaryl polyglycol ether
To produce a suitable preparation of active compound, 1 part by weight of active compound is mixed with the stated amounts of solvent and emulsifier, and the concentrate is diluted with emulsifier-containing water to the desired concentration.
Cotton leaves (Gossypium hirsutum) infested by the whitefly (Bemisia tabacii) are treated by being sprayed with the preparation of active compound at the desired concentration.
After the desired period of time, a defined amount of mirid bugs (Macrolophus caliginosus) is added.
After the desired period of time, the kill of the pest in % is determined. 100% means that all whiteflies have been killed; 0% means that none of the whiteflies have been killed. The determined kill rates are entered into Colby's formula.

[2] = application 0.2 % (50 SP), 7 d after first treatment
[3] = application 0.2 % (50 SP), 14 d after first treatment
[4] = application 0.2 % (50 SP), 21 d after first treatment
[5] = application 0.2 % (50 SP), 28 d after first treatment
[6] = application 0.06 % (240 SC), 14 d after first treatment
[7] = application 0.06 % (240 SC), 21 d after first treatment
[8] = application 0.06 % (240 SC), 28 d after first treatment

Structure (SMILES)	Number Orius laevigalus larvae + adults (Orius laevigalus; [2])	Number Orius laevigalus larvae + adults (Orius laevigalus; [3])	Number Orius laevigalus larvae + adults (Orius laevigalus; [4])	Number Orius laevigalus larvae + adults (Orius laevigalus; [5])	Number Frankliniella occidentalis larvae + adults [1, 2]	Number Frankliniella occidentalis larvae + adults [1, 3]	Number Frankliniella occidentalis larvae + adults [1, 4]	Number Frankliniella occidentalis larvae + adults [1, 5]	Number Orius laevigalus larvae + adults (Orius laevigalus; application 0.06 % (240 SC), 7 d after first treatment)	Number Orius laevigalus larvae + adults (Orius laevigalus; [6])	Number Orius laevigalus larvae + adults (Orius laevigalus; [7])	Number Orius laevigalus larvae + adults (Orius laevigalus; [8])	Kill in % after 14 d (Bemisia tabaci)	Number Frankliniella occidentalis larvae + adults ([1]; application 0.06 % (240 SC), 7 d after first treatment, bell pepper greenhouse)	Number Frankliniella occidentalis larvae + adults [1, 6]	Number Frankliniella occidentalis larvae + adults [1, 7]	Number Frankliniella occidentalis larvae + adults [1, 8]
CNC(=O)Oc1cccc(N=CN(C)C)c1 [Formetanate, reference compound]	0.3	0	0.3	0.3	2	3.5	8	18.8									
Cc1cc(C)c(C2=C(OC(=O)CC(C)(C)C)C3(CCCC3)OC2=O)c(C)c1 [Spiromesifen (Ex. I-b-1), Spiromesifen]									2.5	3.7	7.3	9	1.25%	16.7	13.7	9	13.7
